Source: patent US20250092016A1, “COMPOUNDS AND COMPOSITIONS FOR THE TREATMENT OF CORONAVIRAL RELATED DISEASES” (priority 2021, published 2025)

The compounds below were run against SARS-CoV-2 main protease (M^pro) (Severe acute respiratory syndrome coronavirus 2, UniProt P0DTD1) (assay: Rapid-Fire MS Biochemical Assay measuring Mpro activity (5 nM Mpro)). Conditions: Rapid-Fire Assay IC50, Table 1B, Mpro inhibition, 5 μM substrate peptide, 120 min.

**Q.** `N#Cc1ccc(N2C[C@H](C#N)N(c3cncc4ccccc34)C2=O)cc1F` (single isomer, unassigned) [Compound 73a] was tested. Which IC50 did it give?
**A.** < 20 nM

**Q.** With `N#C[C@H]1CN(C2CN(S(=O)(=O)C3CC3)C2)C(=O)N1c1cncc2ccccc12` (single isomer, unassigned) [Compound 131a] as the compound, how does the IC50 read?
**A.** 20 to 200 nM

**Q.** With `N#C[C@@H]1CN(C2CN(S(=O)(=O)C3CC3)C2)C(=O)N1c1cncc2ccccc12` (single isomer, unassigned) [Compound 131b] as the compound, how does the IC50 read?
**A.** > 1000 nM

Same assay, conditions: Table 1B, Mpro inhibition, 5 μM substrate peptide, 120 min, read-out: Rapid-Fire Assay IC50

**Q.** With `N#C[C@H]1CN(C2CC(C(F)(F)F)C2)C(=O)N1c1cncc2ccccc12` (mixture of isomers) [Compound 45, (R)-3-(isoquinolin-4-yl)-2-oxo-1-(3-(trifluoromethyl)cyclobutyl)imidazolidine-4-carbonitrile] as the compound, how does the IC50 read?
**A.** > 1000 nM

**Q.** Which IC50 does the source give for `N#C[C@H]1CN(C2CN(CC(F)(F)F)C2)C(=O)N1c1cncc2ccccc12` (single isomer, unassigned) [Compound 133a] here?
**A.** < 20 nM

**Q.** How did the IC50 turn out when `N#C[C@H]1CN(c2cccc3cn[nH]c23)C(=O)N1c1cncc2ccccc12` (single isomer, unassigned) [Compound 63a] was run?
**A.** < 20 nM

**Q.** Which IC50 does the source give for `Cc1ncccc1N1C[C@H](C#N)N(c2cncc3ccccc23)C1=O` (single isomer, unassigned) [Compound 74a] here?
**A.** 200 to 1000 nM

**Q.** Which IC50 does the source give for `N#C[C@@H]1CN(c2cc(OC(F)F)ccc2F)C(=O)N1c1cncc2ccccc12` (single isomer, unassigned) [Compound 59b] here?
**A.** > 1000 nM

**Q.** How did the IC50 turn out when `N#CC1CN(c2cc(C(F)(F)F)ncc2Cl)C(=O)N1c1cncc2ccccc12` (racemic) [Compound 70-1, 1-(5-chloro-2-(trifluoromethyl)pyridin-4-yl)-3-(isoquinolin-4-yl)-2-oxoimidazolidine-4-carbonitrile] was run?
**A.** 20 to 200 nM

**Q.** For `N#C[C@@H]1CN(C23CC(F)(C2)C3)C(=O)N1c1cncc2ccccc12` (single isomer, unassigned) [Compound 139b], which IC50 is on record?
**A.** > 1000 nM

**Q.** How did the IC50 turn out when `N#Cc1cc(Cl)ccc1N1C[C@H](C#N)N(c2cncc3ccccc23)C1=O` (single isomer, unassigned) [Compound 60a] was run?
**A.** < 20 nM

**Q.** How did the IC50 turn out when `N#CC1CN(c2cc(F)cc(F)c2)C(=O)N1c1cncc2ccccc12` (racemic) [Compound 110, 1-(3,5-difluorophenyl)-3-(isoquinolin-4-yl)-2-oxoimidazolidine-4-carbonitrile] was run?
**A.** < 20 nM

**Q.** For `N#C[C@H]1CN([C@H]2C[C@@H](C3CC3)C2)C(=O)N1c1cncc2ccccc12` [Compound 124a, (R)-1-((1s,3S)-3-cyclopropylcyclobutyl)-3-(isoquinolin-4-yl)-2-oxoimidazolidine-4-carbonitrile], which IC50 is on record?
**A.** < 20 nM

**Q.** With `Cc1cc(Cl)cnc1N1C[C@@H](C#N)N(c2cncc3ccccc23)C1=O` (single isomer, unassigned) [Compound 80b] as the compound, how does the IC50 read?
**A.** > 1000 nM

**Q.** With `COc1cnc(C(F)(F)F)nc1N1C[C@H](C#N)N(c2cncc3ccccc23)C1=O` (single isomer, unassigned) [Compound 31a] as the compound, how does the IC50 read?
**A.** 20 to 200 nM

**Q.** Which IC50 does the source give for `Cc1ccc(C#N)c(N2CC(C#N)N(c3cncc4ccccc34)C2=O)c1` (racemic) [Compound 116, 1-(2-cyano-5-methylphenyl)-3-(isoquinolin-4-yl)-2-oxoimidazolidine-4-carbonitrile] here?
**A.** < 20 nM

**Q.** Which IC50 does the source give for `N#C[C@@H]1CN(c2ccnc(C(F)(F)F)c2)C(=O)N1c1cncc2ccccc12` (single isomer, unassigned) [Compound 57b] here?
**A.** > 1000 nM

**Q.** `N#C[C@H]1CN(c2ccc(OC(F)F)cc2F)C(=O)N1c1cncc2ccccc12` (single isomer, unassigned) [Compound 83a] was tested. Which IC50 did it give?
**A.** 20 to 200 nM

**Q.** For `N#C[C@@H]1CN(c2cnc(C(F)(F)F)nc2)C(=O)N1c1cncc2ccccc12` (single isomer, unassigned) [Compound 93b], which IC50 is on record?
**A.** > 1000 nM

**Q.** Which IC50 does the source give for `N#CC1CN(C2CC(F)(F)C2)C(=O)N1c1cncc2ccccc12` (racemic) [Compound 27, 1-(3,3-difluorocyclobutyl)-3-(isoquinolin-4-yl)-2-oxoimidazolidine-4-carbonitrile] here?
**A.** 20 to 200 nM

**Q.** With `N#Cc1cc(Cl)ccc1N1C[C@@H](C#N)N(c2cncc3ccccc23)C1=O` (single isomer, unassigned) [Compound 60b] as the compound, how does the IC50 read?
**A.** 200 to 1000 nM

**Q.** With `CC1(C)CC(N2C[C@@H](C#N)N(c3cncc4ccccc34)C2=O)C1` (single isomer, unassigned) [Compound 126b] as the compound, how does the IC50 read?
**A.** > 1000 nM

**Q.** For `Cn1cc(N2CC(C#N)N(c3cncc4ccccc34)C2=O)cn1` (racemic) [Compound 65, 3-(isoquinolin-4-yl)-1-(1-methyl-1H-pyrazol-4-yl)-2-oxoimidazolidine-4-carbonitrile], which IC50 is on record?
**A.** 200 to 1000 nM

**Q.** `COc1ccc(C#N)cc1N1CC(C#N)N(c2cncc3ccccc23)C1=O` (racemic) [Compound 15, 1-(5-cyano-2-methoxyphenyl)-3-(isoquinolin-4-yl)-2-oxoimidazolidine-4-carbonitrile] was tested. Which IC50 did it give?
**A.** < 20 nM

**Q.** How did the IC50 turn out when `N#CC1CN(c2ccnc(C(F)(F)F)c2)C(=O)N1c1cncc2ccccc12` (racemic) [Compound 57, 3-(isoquinolin-4-yl)-2-oxo-1-(2-(trifluoromethyl)pyridin-4-yl)imidazolidine-4-carbonitrile] was run?
**A.** < 20 nM

**Q.** Which IC50 does the source give for `COc1cc(N2C[C@H](C#N)N(c3cncc4ccccc34)C2=O)ccn1` (single isomer, unassigned) [Compound 23a] here?
**A.** < 20 nM

**Q.** For `N#C[C@H]1CN(c2cccc(Cl)n2)C(=O)N1c1cncc2ccccc12` (single isomer, unassigned) [Compound 111a], which IC50 is on record?
**A.** < 20 nM

**Q.** With `C[C@H]1C[C@H](N2C[C@H](C#N)N(c3cncc4ccccc34)C2=O)C1` [Compound 120b, (R)-3-(isoquinolin-4-yl)-1-((1 r,3R)-3-methylcyclobutyl)-2-oxoimidazolidine-4-carbonitrile] as the compound, how does the IC50 read?
**A.** 20 to 200 nM

**Q.** `CC(C)(C)CN1C[C@H](C#N)N(c2cncc3ccccc23)C1=O` (single isomer, unassigned) [Compound 140a] was tested. Which IC50 did it give?
**A.** 20 to 200 nM

**Q.** `Cc1cnc(C(F)(F)F)nc1N1C[C@@H](C#N)N(c2cncc3ccccc23)C1=O` (single isomer, unassigned) [Compound 62b] was tested. Which IC50 did it give?
**A.** > 1000 nM

**Q.** Which IC50 does the source give for `N#C[C@@H]1CN(C23CC(C(F)(F)F)(C2)C3)C(=O)N1c1cncc2ccccc12` (single isomer, unassigned) [Compound 137b] here?
**A.** > 1000 nM

**Q.** For `Cc1cc(N2C[C@@H](C#N)N(c3cncc4ccccc34)C2=O)ccn1` (single isomer, unassigned) [Compound 44b], which IC50 is on record?
**A.** > 1000 nM

**Q.** `C[C@H]1[C@@H](C#N)N(c2cncc3ccccc23)C(=O)N1c1cccc(Cl)c1` (single isomer, unassigned) [Compound 43b] was tested. Which IC50 did it give?
**A.** 200 to 1000 nM

**Q.** With `N#C[C@H]1CN(C2CN(C3CC3)C2)C(=O)N1c1cncc2ccccc12` (single isomer, unassigned) [Compound 136a] as the compound, how does the IC50 read?
**A.** < 20 nM

**Q.** How did the IC50 turn out when `N#C[C@H]1CN(c2cccc(C(F)(F)F)c2)C(=O)N1c1cncc2ccccc12` (single isomer, unassigned) [Compound 106a] was run?
**A.** < 20 nM

**Q.** With `N#C[C@@H]1CN([C@H]2C[C@H](C3CC3)C2)C(=O)N1c1cncc2ccccc12` [Compound 124c, (S)-1-((1r,3S)-3-cyclopropylcyclobutyl)-3-(isoquinolin-4-yl)-2-oxoimidazolidine-4-carbonitrile] as the compound, how does the IC50 read?
**A.** > 1000 nM

**Q.** Which IC50 does the source give for `N#Cc1ccc(C(F)(F)F)cc1N1C[C@H](C#N)N(c2cncc3ccccc23)C1=O` (single isomer, unassigned) [Compound 90a] here?
**A.** < 20 nM

**Q.** `CC(C)[C@H]1C[C@H](N2C[C@H](C#N)N(c3cncc4ccccc34)C2=O)C1` [Compound 123b, (R)-1-((1r,3R)-3-isopropylcyclobutyl)-3-(isoquinolin-4-yl)-2-oxoimidazolidine-4-carbonitrile] was tested. Which IC50 did it give?
**A.** < 20 nM

**Q.** How did the IC50 turn out when `N#C[C@@H]1CN([C@H]2CCC(F)(F)C2)C(=O)N1c1cncc2ccccc12` (single isomer, unassigned) [Compound 141b, (S)-1-((S)-3,3-difluorocyclopentyl)-3-(isoquinolin-4-yl)-2-oxoimidazolidine-4-carbonitrile or (S)-1-((R)-3,3-difluorocyclopentyl)-3-(isoquinolin-4-yl)-2-oxoimidazolidine-4-carbonitrile] was run?
**A.** > 1000 nM

**Q.** Which IC50 does the source give for `Cc1cnc(C(F)(F)F)cc1N1C[C@@H](C#N)N(c2cncc3ccccc23)C1=O` (single isomer, unassigned) [Compound 70b] here?
**A.** > 1000 nM

**Q.** `COc1ccc(N2C[C@@H](C#N)N(c3cncc4ccccc34)C2=O)cn1` (single isomer, unassigned) [Compound 112b] was tested. Which IC50 did it give?
**A.** > 1000 nM

**Q.** How did the IC50 turn out when `N#C[C@H]1CN([C@H]2C[C@@H](C(F)(F)F)C2)C(=O)N1c1cncc2ccccc12` [Compound 45b, (R)-3-(isoquinolin-4-yl)-2-oxo-1-((1s,3S)-3-(trifluoromethyl)cyclobutyl)imidazolidine-4-carbonitrile] was run?
**A.** 200 to 1000 nM

**Q.** `N#CC1CN(C23CC(F)(C2)C3)C(=O)N1c1cncc2ccccc12` (racemic) [Compound 139, 1-(3-fluorobicyclo[1.1.1]pentan-1-yl)-3-(isoquinolin-4-yl)-2-oxoimidazolidine-4-carbonitrile] was tested. Which IC50 did it give?
**A.** 20 to 200 nM

**Q.** Which IC50 does the source give for `N#C[C@H]1CN(c2ccc(C(F)(F)F)cc2)C(=O)N1c1cncc2ccccc12` (single isomer, unassigned) [Compound 99a] here?
**A.** < 20 nM

**Q.** For `Cn1ccc(N2C[C@H](C#N)N(c3cncc4ccccc34)C2=O)cc1=O` (single isomer, unassigned) [Compound 67a], which IC50 is on record?
**A.** 20 to 200 nM

**Q.** For `N#Cc1ccc(C(F)(F)F)cc1N1CC(C#N)N(c2cncc3ccccc23)C1=O` (racemic) [Compound 90, 1-(2-cyano-5-(trifluoromethyl)phenyl)-3-(isoquinolin-4-yl)-2-oxoimidazolidine-4-carbonitrile], which IC50 is on record?
**A.** < 20 nM

**Q.** `N#Cc1cnc(C(F)(F)F)cc1N1C[C@H](C#N)N(c2cncc3ccccc23)C1=O` (single isomer, unassigned) [Compound 117a] was tested. Which IC50 did it give?
**A.** < 20 nM

**Q.** `Cc1ncc(N2C[C@H](C#N)N(c3cncc4ccccc34)C2=O)cn1` (single isomer, unassigned) [Compound 79a] was tested. Which IC50 did it give?
**A.** 20 to 200 nM

**Q.** `N#C[C@H]1CN(c2ccc(C(F)F)cc2)C(=O)N1c1cncc2ccccc12` (single isomer, unassigned) [Compound 108a] was tested. Which IC50 did it give?
**A.** < 20 nM

**Q.** With `N#C[C@@H]1CN([C@@H]2CCN(CCC(F)(F)F)C2)C(=O)N1c1cncc2ccccc12` (single isomer, unassigned) [Compound 26b] as the compound, how does the IC50 read?
**A.** > 1000 nM
